According to US20250313528A1, “NOVEL COMPOUND AND PHARMACEUTICAL COMPOSITION FOR PREVENTING OR TREATING PULMONARY FIBROSIS COMPRISING SAME AS ACTIVE INGREDIENT” (GIL MEDICAL CENTER, priority 2022, published 2025):

Columns and labels:
[1] = tested on: fibronectin and α-SMA; assay: Western blotting of fibrosis-related proteins in TGF-β1-induced MRC-5 cells; assay type: cell-based, human; conditions: for expression of fibronectin and α-SMA by concentration: MRC-5 + TGF-β1, Compound 1 at 5, 10, 20 μM, Compound 2 at 2.5, 5, 10 μM, FIG. 3; for expression levels of fibronectin and α-SMA protein: MRC-5, TGF-β1 1 ng/ml, 10 μM, FIG. 4b; for expression levels of fibronectin and α-SMA: MRC-5 induced by TGF-β1, screen of sulforaphane compounds, FIG. 2
Protocol: Since the overexpression of extracellular matrix components such as fibronectin and α-SMA serves as an indicator of fibrotic changes in tissues, MRC-5 cells induced to undergo fibrosis by TGF-β1 were treated with each compound at different concentrations to compare the expression levels of fibronectin and α-SMA.
Specifically, to extract fibronectin and α-SMA proteins, the cells were washed once with cold PBS and then RIPA buffer (150 mM NaCl, 0.5% Triton X-100, 50 mM Tris-HCl, pH 7.4, 25 mM NaF, 20 mM EGTA), which was added with a protease inhibitor cocktail, was added thereto to lyse the cells. Then, the proteins were quantified using a BCA protein assay kit. All protein samples were subjected to electrophoresis at 10 μg on 8% to 10% PAGE gels and then transferred to 0.2 μm PVDF membranes (EMD Millipore, MA, USA). The membranes to which the protein was transferred were blocked with 5% BSA or 5% skim milk for 1 hour, and then primary antibodies were added thereto and incubated overnight at 4° C. The following day, the membranes were washed three times with PBST, and then HRP-conjugated secondary antibodies were added and reacted at room temperature for 1 hour. The PVDF membranes prepared through such procedures were smeared with ECL (Luminata™ Crescendo, EMD Millipore) and exposed to a fluorescence reader to confirm the level of protein expression.
The specific experimental methods are the same as in Example 2, and sulforaphane was treated at a concentration of 20 μM, Compound 1 at 5 μM, 10 μM, and 20 μM, and Compound 2 at 2.5 μM, 5 μM, and 10 μM, respectively.
To compare the changes in fibrosis-related protein expression by treating normal MRC-5 and diseased DHLF-IPF cell lines induced with pulmonary fibrosis by TGF-β1 with SFN and the two candidate compounds, Western blotting was performed.
The specific experimental methods are the same as in Example 2. TGF-β1 was treated at 1 ng/ml to induce fibrosis, and sulforaphane and the two compounds each were treated at a concentration of 10 μM.

[2] = tested on: DHLF-IPF cells; assay: Wound healing assay, DHLF-IPF; assay type: cell-based, human; conditions: TGF-β1 treatment, 24 hours, FIG. 6
Protocol: The effects of Compound 1 and Compound 2, selected in Example 3, on cell migration (wound healing) in MRC-5 and DHLF-IPF cells were examined.
Specifically, cells (1×10^5 cells/well) were seeded in a 60 mm dish to achieve approximately 90% confluency and cultured for 24 hours. Subsequently, a straight line was scratched on the bottom with a 200 μL pipette tip, and the detached cells were removed by washing once with Dulbecco's Phosphate-Buffered Saline (DPBS). The wound was photographed under a microscope, and treatments with TGF-β1 alone, TGF-β1+SFN, TGF-β1+GSF-016, and TGF-1+GSF-018 were applied and cultured for approximately 24 hours, after which the wound was re-photographed. The images taken at 24 hours of culture were analyzed using the Image J (Fiji package) software to measure the distance between cells, and the relative migration was expressed as a percentage (%) compared to the control group.

SMILES | expression of fibronectin and α-SMA by concentration [1] | expression levels of fibronectin and α-SMA protein [1] | expression levels of fibronectin and α-SMA [1] | cell migration (wound healing) [2]
CCOC(=O)C(CSC(=S)NCCCC[S+](C)[O-])NC(C)=O (centres unmarked) [Compound 1] | decreased in a concentration-dependent manner | significantly reducing the expression levels compared to sulforaphane | significantly decreased | significantly inhibited in a dose-dependent manner
C=CCOC(=O)C(CSC(=S)NCCCC[S+](C)[O-])NC(C)=O (centres unmarked) [Compound 2] | decreased in a concentration-dependent manner | significantly reducing the expression levels compared to sulforaphane | significantly decreased | significantly inhibited in a dose-dependent manner
